{"source": "patent US20260263573A1", "about": "“Tumor Immunotherapy” (PingShan Translational Medicine Center, Shenzhen Bay …, priority 2022, published 2026)", "test_system": "B16-OVA melanoma", "assay": "Lung metastasis model", "assay_type": "in vivo, mice", "conditions": "day 20 after tail vein injection of B16-OVA", "method": "Furthermore, a lung metastasis model was selected to evaluate the prevention of lung colonization of melanoma with nanocomposites (FIG. 21a). The administration was similar to that of the tumor model, except that 5×10^5 B16-OVA cells per mouse were injected via tail vein 7 days after the end of the last administration. The mice were dissected on day 20 after injection, the lungs of the mice were removed, and the lungs were washed with Fekete's eluent (70 mL of alcohol, 10 mL of formaldehyde, 5 mL of glacial acetic acid, 15 mL of water). After decoloration, lung tumor nodules were counted. Finally, all tissues were sent to Univ company for tissue section and H&E staining analysis.", "data": [{"substance": "Ac-WMβASIINFEKL (WMXSIINFEKL; N-terminal acetyl; beta-alanine; N-terminal Acetylation and Xaa represents a ??-alanine isomer of alanine at the 3AA position; (3)..(3) Xaa is ??-alanine (beta-alanine), an isomer of Alanine) [OVA]", "values": [{"measurement": "H&E staining of lung tissue: melanoma cell infestation", "result": "lung cells infected with melanoma cells were also found"}]}]}
